# According to patent US10401793B2, “Digital holographic method of measuring cellular activity and measuring apparatus with improved stability” (PURDUE RESEARCH FOUNDATION, priority 2010, dated 2019):
# “Also recorded” adds a separate entry of the source. Where two headings read alike, the source gives them in different places.
# Experiments:
# Type in all cases: cell-based
# [1] = tested on: Rat osteogenic sarcoma tumor spheroids; test: Speckle fluctuation spectroscopy: differential spectrograms (normalized spectral difference) of living tumor spheroids by coherence-gated digital holography
# Text: The set-up includes several mirrors M; a neutral density filter ND, two polarizing beam splitters PBS, a beam splitter BS, three lenses L1-L3, a half-wave plate λ/2, a quarter-wave plate λ/4, a Fourier plane FP, and a sample or target T. A mode-locked Ti:sapphire laser (100 fs pulse duration, 100 MHz repetition rate) was used with a center wavelength of 840 nm and a bandwidth of 17 nm. The lenses L1 and L2 expanded a reference beam, and the lens L3 performed the Fourier transform of the object beam. The CCD camera was placed at the Fourier plane of the object, where the object beam interfered with the zero-path-matched reference beam that passed through the computer-controlled delay line. The typical object intensity for living tissue at the object plane was 5 mW/mm^2, and an 8-bit CCD camera with one mega-pixel resolution was used with an exposure time of 10 msec. Digital holograms were reconstructed by Fast Fourier transform (FFT).
# Rat osteogenic sarcoma tumor spheroids were used as the target tissue samples. Multicellular tumor spheroids have approximately spherical geometry that facilitates comparison of structure to function. As tumor spheroids are cultured in a rotating bioreactor, they undergo cell apoptosis or necrosis in their center and so consist of an inner necrotic core surrounded by an outer proliferating shell with a 100 to 200 μm thickness. A typical pseudo B-scan image is shown in FIG. 20, which is produced from 3D holographic images of an 800-μm-diameter rat tumor spheroid.
# To capture dynamic speckle, 200 successive digital holograms were acquired at a fixed depth shown as a dashed line in FIG. 20. The time interval between holograms was selected to be 0.1 second. Examples of dynamic speckle are shown in FIG. 21A for a healthy rat tumor spheroid with a 600 μm diameter. […] The horizontal axis is the spatial axis and time is vertical. […] A “healthy” tumor is one that has been removed from the bioreactor and maintained in growth medium at room temperature for no more than 24 hours.
# For tissue responding to stimuli, such as temperature and osmolarity changes or response to drugs, the key property of the spectral power density is its relative change in response to the stimulus. The normalized spectral difference for a time series is given by
# [formula] where S0 (ω,t 0) is the starting spectral power density at the beginning time t0 of the experiment, and S(ω, t) is the time development of the spectral power density. The normalized power spectrum as a function of frequency of a 450-μm-diameter tumor responding to a dose of 1 μg/ml of nocodazole, an anti-tubulin cytoskeletal drug, is shown in FIG. 21C at selected times after the application of the drug. The associated normalized differential relative spectral change is shown in FIG. 21D as a function of time for the selected frequencies.
# The tissue response contained in D(ω, t) can be represented as a spectrogram, showing the relative change in the spectrum as a function of time. These spectrograms track the changes of the intra-cellular motion in living tumors responding to temperature changes, osmolarity changes, and to nocodazole. The spectral difference in response to changes in temperature is shown in FIG. 22A as the temperature increased from 24° C. to 37° C. and then decreased to 24° C. The lower frequencies show weak suppression with increasing temperature, while the upper frequencies show significant enhancement at the highest temperature.
# The drug-response spectrograms are defined by the differential relative spectral density as D(ω, t)=[S(ω, t)−S(ω, t0)]/S (ω, t0) where the spectrum at time t is related to and normalized by the spectrum at time to before the application of the perturbation or dose. The normalization is essential, because the spectral power density has general 1/f behavior, and the high frequency amplitudes are much smaller than the low frequency amplitudes. […]
# tumor spheroids = test: Motility contrast imaging (motility metric, dynamic speckle) of tumor spheroids; conditions: for dose-response plotted as a reaction velocity (suppression of cellular motion): FIG. 13D, comparison of Nocodazole, Colchicine, Taxol
# Experimental: To create tumor spheroids for our studies, two different cell lines were used: rat osteogenic sarcoma UMR-106 cells, and human liver carcinoma Hep G2 cells. These were cultured in a rotating bioreactor (Synthecon, Houston, Tex.) where they were maintained in suspension. The spheroids may be grown up to a mm in diameter. An advantage to using this continuous culture model is that fresh spheroids of varying size are easily prepared on a daily basis.
# Motility contrast imaging relies on dynamic light scattering combined with coherence gating. […] The data are the reconstructed pixel intensities plotted on a dB reflectance scale. The tumor in FIG. 9A was “healthy” while the tumor in FIG. 9B had been crosslinked with glutaraldehyde. […] The vertical axis is frame number at a rate of one frame per second.
# Among the several possible ways to define a motility metric, one particularly robust approach simply calculates the coefficient of variance (known as the CV or as the normalized standard deviation) of a pixel value (after background subtraction) as a property related to the cellular and subcellular motion. The motility metric for individual pixels is plotted in FIG. 11 at nine selected depths inside a healthy tumor. The depths starting in the upper-left are 60 μm, 120 μm, 180 μm, 260 μm, 330 μm, 390 μm, 460 μm, 530 μm and 600 μm, respectively. The first frame is near the top of the tumor, while the central frame is near the center plane of the tumor. In the central plane there is a strong contrast between the healthy shell and necrotic core. […] These images correlate with the known structure of the tumor spheroids with a healthy outer shell and a necrotic core. In these images, the internal motions of the cells themselves have provided the imaging contrast agent. This is a truly endogenous functional imaging approach (i.e. without additional labeling or contrast agents).
# Armed with the motility metric and the maps of cellular motion, it is possible to image the effects of anti-mitotic drugs (AMD) on the motility images. A time series at a fixed depth is shown in FIG. 12 for Nocodazole, which is an antimitotic drug (AMD) that inhibits the polymerization of tubulin into microtubules. The first frame is the initial state of the tumor. […] Nocodazole inhibits the polymerization of the microtubules, while treadmilling dissolves the microtubules from the other end, resulting in a significant reduction in the microtubule density within the cells. Without the microtubule cytoskeleton, organelle transport is suppressed, which is captured by the dynamic light scattering.
# [2] = tested on: tumor spheroid (healthy shell and necrotic core); test: Heterodyne autocorrelation function of depth-gated speckle (correlation time, NSD) of a tumor spheroid; conditions: 10 minutes after 10 μg/ml cytochalasin D
# Text: In living tissue, the speckle is dynamic, caused by motion of cellular membranes and by intracellular organelles, coupled with the optical channel cross-talk caused by multiple scattering. […] We previously studied the effects of anti-mitotic drugs on tumor spheroids using optical coherence imaging, and defined motility metrics from the autocorrelation functions of the depth-gated pixel fluctuations. The resulting motility contrast imaging (MCI) is fully endogenous, responding to the dynamic functions of cellular processes. The autocorrelation function is a first-order heterodyne function because the holography uses a reference wave (the coherence gate) that captures the real and imaginary part of the fluctuating field as the coherence-gated pixel number Id^(1) (t) to yield the autocorrelation function A^(1)(τ)= ? id^(1)(0)id^(1)(τ) ? ∝ILO^2+2ILORE {I^(1)(τ)} where τ is the time delay among an ensemble of images, and I^(1), (τ) is the heterodyne correlation function. Two motility metrics can be defined from the heterodyne correlation function. They are the decay time, and the normalized standard deviation, given by
# An ensemble consists of 40 images taken with a frame rate of 1 per second. […] […].
compound,measurement,setting,value
COc1cc2c(c(OC)c1OC)-c1ccc(OC)c(=O)cc1[C@@H](NC(C)=O)CC2 [Colchicine],"high-frequency organelle activity, core-shell comparison",[1],appears only in the healthy shell and not in the core
same,spectrogram fingerprint,[1],significant enhancement of lower frequencies
COC(=O)Nc1nc2ccc(C(=O)c3cccs3)cc2[nH]1 [Nocodazole],"normalized spectral difference, middle frequency range between 0.02 Hz to 1 Hz",[1]; 1 μg/ml nocodazole,very strong suppression in motion
same,"normalized spectral difference, ultra-low frequency below 0.01 Hz",[1]; 1 μg/ml nocodazole,enhancement
same,normalized differential relative spectral change as a function of time at selected frequencies,"[1]; 1 μg/ml nocodazole, 450-μm-diameter tumor, proliferating shell",higher frequencies change relatively less than the lower frequencies
same,spectrogram fingerprint,"[1]; dose of 1 μg/ml, FIG. 34A-34D",significant enhancement of lower frequencies
same,"motility (activity) of the outer shell, motility maps","tumor spheroids; 2 μg/ml Nocodazole, 3 minutes after application, fixed depth",increased its activity by a small amount
same,"motility (motion) of the outer shell, motility maps","tumor spheroids; 2 μg/ml Nocodazole, 21 minutes",partially suppressed
same,"motility (motion) of the outer shell, motility maps","tumor spheroids; 2 μg/ml Nocodazole, 50 minutes",further suppressed
same,"motility (motion) of the outer shell, motility maps","tumor spheroids; 2 μg/ml Nocodazole, 79 minutes",further suppressed
same,"motility in the outer shell, motility maps","tumor spheroids; 2 μg/ml Nocodazole, 119 minutes after application",significantly reduced
same,dose-response plotted as a reaction velocity (suppression of cellular motion),tumor spheroids,strongest suppression of cellular motion at the lowest effective concentrations
"CC(=O)O[C@H]1C(=O)[C@@]2(C)[C@H]([C@H](OC(=O)c3ccccc3)[C@]3(O)C[C@H](OC(=O)[C@H](O)[C@@H](NC(=O)c4ccccc4)c4ccccc4)C(C)=C1C3(C)C)[C@]1(OC(C)=O)CO[C@@H]1C[C@@H]2O [Taxol, Paclitaxel]",spectrogram fingerprint,"[1]; dose of 1 μg/ml, FIG. 34A-34D",only a weak change
same,"high-frequency organelle activity, core-shell comparison",[1]; shell versus core spectrograms,appears only in the healthy shell and not in the core
same,"suppression of the motility, time evolution under different doses",tumor spheroids; FIG. 13A-13C,significantly smaller suppression of the motility
same,dose-response plotted as a reaction velocity (suppression of cellular motion),tumor spheroids,weakest effect
C=C1[C@@H](C)[C@H]2[C@H](Cc3ccccc3)NC(=O)[C@]23[C@H](OC(C)=O)/C=C/[C@@](C)(O)C(=O)[C@@H](C)C/C=C/[C@H]3[C@@H]1O [cytochalasin D],"relative power spectral density, middle-frequency fluctuations, shell","[1]; 50 μg/ml cytochalasin D at room temperature, 10 μg/ml at physiological temperature",enhanced
same,spectrogram fingerprint,"[1]; dose of 1 μg/ml, FIG. 34A-34D","enhancement of the mid-frequencies for about 2 hours after application of the drug, followed by a shift of the spectral weight to lower frequencies"
same,"high-frequency organelle activity, core-shell comparison",[1]; shell versus core spectrograms,appears only in the healthy shell and not in the core; also recorded: appears strongly only in the shell and not in the core
same,brightness change of the healthy shell,[2],6%
same,brightness change of the necrotic core,[2],becomes dimmer
same,"correlation time, healthy shell",[2]; before dose 4.6 sec,7.2 s
O=CCCCC=O [glutaraldehyde],dynamic speckle at fixed depth,"tumor spheroids; tumor crosslinked with glutaraldehyde, depth about 300 microns, one frame per second",static speckle
O=C(O)CI [iodoacetate],"oscillations in the spectrogram, shell and core",[1],induces oscillations in the mid-to-low frequency range
same,"spectrogram of the shell, high frequencies associated with organelle transport",[1],strong increase
